According to US20090118271A1, “Preventive or Therapeutic Agents for Pancreatic Cancer, Ovarian Cancer, or Liver Cancer Comprising a Novel Water-Soluble Prodrug” (CHUGAI SEIYAKU KABUSHIKI KAISHA, priority 2005, published 2009):

What was measured:
Assay type in all cases: in vivo
[1] = system: human pancreatic cancer cell line AsPC-1; assay: Antitumor effect in AsPC-1 tumor-bearing nude mice; settings: AsPC-1 s.c. xenograft, BALB/c nude mice, 60 mg/kg/inj. (47 in terms of free base) intravenously, once a week for three weeks
Protocol: (§1) Antitumor effects were determined for representative examples of the compound groups of the present invention. Antitumor effects were determined using tumor-bearing mice generated by subcutaneous transplantation of human pancreatic cancer cell line AsPC-1 obtained from American Type Culture Collection (Virginia, USA) into the right ventral neck of BALB/c nude mice purchased from Japan Charles River.
After a one-week quarantine period, the purchased nude mice were subjected to subcutaneous transplantation of 4.8×10^6 AsPC-1 cells to their right ventral neck. Mice with a tumor size reaching 200 mm^3 or so were subjected to the experiment.
(§2) The compounds were dissolved in 1 mM citric acid/physiological saline (pH3.1-3.2), and were administered intravenously. The administration was carried out once a week for three weeks, for a total of three administrations. The antitumor effect was determined as tumor growth inhibition (TGI), using the following equation.
(§3) Tumor growth inhibition (TGI) (%)={(1−amount of tumor growth in the group treated with the drug/amount of tumor growth in the control group)×100}

[2] = system: human ovarian cancer cell line PA-1; assay: Antitumor effect in PA-1 tumor-bearing nude mice; settings: PA-1 s.c. xenograft, BALB/c nude mice, 40 mg/kg/inj. (32 in terms of free base) intravenously, once a week for three weeks
Protocol: as §1, with “by the” for “by”, “ovarian” for “pancreatic”, “PA-1” for “AsPC-1”
After a one-week quarantine period, the purchased nude mice were subjected to subcutaneous transplantation of 9.8×10^6 PA-1 cells to their right ventral neck. Mice with a tumor size reaching 200 mm^3 or so were subjected to the experiment.
(§4) The compounds were dissolved in physiological saline, and were administered intravenously. The administration was carried out once a week for three weeks, for a total of three administrations. The antitumor effect was determined as tumor growth inhibition (TGI), using the following equation.
Tumor growth inhibition (TGI) (%) {(1−amount of tumor growth in the group treated with the drug/amount of tumor growth in the control group)×100}

[3] = system: human pancreatic cancer cell line Capan-1; assay: Antitumor effect in Capan-1 tumor-bearing nude mice; settings: Capan-1 s.c. xenograft, BALB/c nude mice, 66 mg/kg/inj. (47 in terms of free base) intravenously, once a week for three weeks
Protocol: as §1, with “Capan-1” for “AsPC-1”
After a 19-day quarantine period, the purchased nude mice were subjected to subcutaneous transplantation of 10×10^6 Capan-1 cells to their right ventral neck. Mice with a tumor size reaching 260 mm^3 or so were subjected to the experiment.
as §2, §3

[4] = system: human liver cancer cell line PLC/PRF/5; assay: Antitumor effect in PLC/PRF/5 tumor-bearing nude mice; settings: PLC/PRF/5 s.c. xenograft, BALB/c nude mice, 60 mg/kg/inj. (47 in terms of free base) intravenously, once a week for three weeks
Protocol: as §1, with “liver” for “pancreatic”, “PLC/PRF/5” for “AsPC-1”, “Human Science” for “American Type Culture Collection (Virginia, USA)”
After a one-week quarantine period, the purchased nude mice were subjected to subcutaneous transplantation of 20×10^6 PLC/PRF/5 cells to their right ventral neck. Mice with a tumor size reaching 200 mm^3 or so were subjected to the experiment.
as §4, §3

[5] = system: human ovarian cancer cell line SK-OV-3; assay: Antitumor effect in SK-OV-3 tumor-bearing nude mice; settings: SK-OV-3 s.c. xenograft, BALB/c nude mice, 60 mg/kg/inj. (47 in terms of free base) intravenously, once a week for three weeks
Protocol: Antitumor effects were determined for representative examples of the compound groups of the present invention. Antitumor effects were determined using tumor-bearing mice generated by subcutaneous transplantation of the human ovarian cancer cell line SK-OV-3 obtained from American Type Culture Collection (Virginia, USA) into the right ventral neck of BALB/c nude mice purchased from Japan Charles River.
After a six-day quarantine period, the purchased nude mice were subjected to subcutaneous transplantation of a 2-3 mm square piece of the SK-OV-3 tumor to their right ventral neck. Mice with a tumor size reaching 210 mm^3 or so were subjected to the experiment.
as §4, §3

[6] = system: human pancreatic cancer cell line BxPC-3; assay: Antitumor effect in BxPC-3 tumor-bearing nude mice; settings: BxPC-3 s.c. xenograft, BALB/c nude mice, 66 mg/kg/inj. (47 in terms of free base) intravenously, once a week for three weeks
Protocol: as §1, with “BxPC-3” for “AsPC-1”
After a seven-day quarantine period, the purchased nude mice were subjected to subcutaneous transplantation of 9×10^6 BxPC-3 cells to their right ventral neck. Mice with a tumor size reaching 400 mm^3 or so were subjected to the experiment.
as §2, §3

## CCCCCN1C=Nc2cccc3nc4c(c1c23)Cn1c-4cc2c(c1=O)COC(=O)[C@@]2(CC)OC(=O)CN(C)C(=O)CN.Cl [Compound 2A, (9S)-9-Ethyl-9-(glycyl-sarcosyloxy)-1-pentyl-1H,12H-pyrano[3″,4″:6′,7′]indolizino[1′,2′:6,5]pyrido[4,3,2-de]quinazoline-10,13(9H,15H)-dione Hydrochloride]
[1]
  TGI (%) on Day 21: 73%
[2]
  TGI (%) on Day 21: 84%
[3]
  TGI (%) on Day 21: 122%
[4]
  TGI (%) on Day 21: 84%
[5]
  TGI (%) on Day 21: 52%
[6]; Day 14
  TGI (%) on Day 14: 55%
[6]; Day 21
  TGI (%) on Day 21: 47%
